Source: ChEMBL document CHEMBL3397018, “Discovery of phenylpiperazine derivatives as IGF-1R inhibitor with potent antiproliferative properties in vitro” (Bioorg Med Chem Lett, 2015)
Calls of active or inactive are those of the source. No cut-off for these calls is given here.

Experiments:
[1] = Antiproliferative activity against human SGC7901 cells after 48 hrs by MTT assay; details: SGC-7901, 48 h
[2] = Antiproliferative activity against human SMMC7721 cells after 48 hrs by MTT assay; details: SMMC-7721, 48 h
MCF7 [3] = test: cells; details: Homo sapiens, MCF7, 48 h
cells = details: Homo sapiens, LS174T, 48 h
Description: Antiproliferative activity against human LS 174T cells after 48 hrs by MTT assay

[4] = Cytotoxicity against human QSG7701 cells after 72 hrs by MTT assay; assay type: cell-based
MCF7 [5] = test: Induction of apoptosis in human MCF7 cells after 24 hrs by DNA ladder detection based method; assay type: functional, cell-based
[6] = molecular target: Insulin-like growth factor 1 receptor (Homo sapiens, UniProt P08069); test: Inhibition of NH2-terminal glutathione S-transferase fused human recombinant IGF-IR catalytic domain expressed in insect cells using poly(Glu:Tyr) substrate by ELISA-based assay
Insulin-like growth factor 1 receptor, sequence (P08069 31-736 limits assumed): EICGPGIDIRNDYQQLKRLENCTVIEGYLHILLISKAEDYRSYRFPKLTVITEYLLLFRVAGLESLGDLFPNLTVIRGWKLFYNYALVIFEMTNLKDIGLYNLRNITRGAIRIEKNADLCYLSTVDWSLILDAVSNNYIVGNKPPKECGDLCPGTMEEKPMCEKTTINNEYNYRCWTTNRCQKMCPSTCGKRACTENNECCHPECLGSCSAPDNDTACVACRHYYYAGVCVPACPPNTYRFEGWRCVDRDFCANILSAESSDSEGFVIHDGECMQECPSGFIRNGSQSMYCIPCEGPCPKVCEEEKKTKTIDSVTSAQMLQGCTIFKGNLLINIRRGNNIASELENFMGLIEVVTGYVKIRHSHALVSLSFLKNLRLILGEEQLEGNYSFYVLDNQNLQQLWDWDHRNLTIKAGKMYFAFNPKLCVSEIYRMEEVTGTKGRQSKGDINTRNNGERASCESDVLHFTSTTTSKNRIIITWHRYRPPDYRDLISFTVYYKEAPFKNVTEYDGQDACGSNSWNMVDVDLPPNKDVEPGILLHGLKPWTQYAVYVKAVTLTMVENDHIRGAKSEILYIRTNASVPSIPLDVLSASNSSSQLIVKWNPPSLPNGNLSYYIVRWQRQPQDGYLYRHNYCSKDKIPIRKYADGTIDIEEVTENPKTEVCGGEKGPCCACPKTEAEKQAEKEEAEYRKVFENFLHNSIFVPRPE
Insulin-like growth factor 1 receptor, sequence (P08069 741-1367 limits assumed): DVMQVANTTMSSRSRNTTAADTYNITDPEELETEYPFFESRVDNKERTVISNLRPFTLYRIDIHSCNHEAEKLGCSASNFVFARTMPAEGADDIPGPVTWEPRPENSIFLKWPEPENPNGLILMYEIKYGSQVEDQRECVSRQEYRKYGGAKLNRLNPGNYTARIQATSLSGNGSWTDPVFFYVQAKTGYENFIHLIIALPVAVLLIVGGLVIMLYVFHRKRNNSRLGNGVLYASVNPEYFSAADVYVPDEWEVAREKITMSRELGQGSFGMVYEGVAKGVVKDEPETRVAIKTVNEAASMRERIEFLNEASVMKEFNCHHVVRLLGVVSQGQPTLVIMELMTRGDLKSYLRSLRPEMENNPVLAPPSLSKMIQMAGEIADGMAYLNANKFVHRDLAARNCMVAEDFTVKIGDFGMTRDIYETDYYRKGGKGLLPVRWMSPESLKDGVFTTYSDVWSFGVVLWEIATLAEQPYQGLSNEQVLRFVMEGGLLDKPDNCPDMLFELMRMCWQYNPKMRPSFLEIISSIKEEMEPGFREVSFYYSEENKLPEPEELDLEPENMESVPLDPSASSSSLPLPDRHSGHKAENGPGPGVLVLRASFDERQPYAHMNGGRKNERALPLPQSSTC

SMILES | IC50 [1] [µM] | IC50 [2] [µM] | IC50 (MCF7 [3]) [µM] | IC50 (cells) [µM] | CC50 at 72 h [4] [µM] | Activity (MCF7 [5]) | IC50 [6] [µM]
OC(CN1CCN(c2cccc(Cl)c2Cl)CC1)c1ccc(Br)cc1 (stereo not given) | 2.47 | 2.04 | 1.06 | 1.92 | – | – | –
O=[N+]([O-])c1ccc(N2CCN(CC(O)c3ccc(Br)cc3)CC2)cc1 (stereo not given) | 1.84 | 1.53 | 1.31 | 2.18 | 1600 | – | –
OC(CN1CCN(c2ccccc2)CC1)c1ccc(Br)cc1 (stereo not given) | 9.28 | 7.64 | 5.71 | 8.99 | 250 | – | –
OC(CN1CCN(C(c2ccc(F)cc2)c2ccc(F)cc2)CC1)c1ccc(Br)cc1 (stereo not given) | 0.116 | 0.15 | 0.024 | 0.068 | – | Active | –
OC(CN1CCN(c2ccc(F)cc2)CC1)c1ccc(Br)cc1 (stereo not given) | 10.3 | 8.16 | 11.5 | 4.61 | – | – | –
OC(CN1CCN(Cc2ccccc2)CC1)c1ccc(Br)cc1 (stereo not given) | 3.76 | 3.54 | 2.88 | 2.69 | – | – | 0.568
OC(CN1CCN(c2cccc(C(F)(F)F)c2)CC1)c1ccc(Br)cc1 (stereo not given) | 2.08 | 1.2 | 0.86 | 0.963 | 6600 | – | –
Cc1ccc(N2CCN(CC(O)c3ccc(Br)cc3)CC2)c(C)c1 (stereo not given) | 1.39 | 1.48 | 0.863 | 1.82 | – | – | –
OC(CN1CCN(c2ccccc2F)CC1)c1ccc(Br)cc1 (stereo not given) | 16 | 9.63 | 16.4 | 5.34 | – | – | –
OC(CN1CCN(c2ccc(Cl)c(Cl)c2)CC1)c1ccc(Br)cc1 (stereo not given) | 2.14 | 1.68 | 0.777 | 1.89 | – | – | –
Cc1cc(N2CCOCC2)cc2[nH]c(-c3c(NC[C@@H](O)c4cccc(Cl)c4)cc[nH]c3=O)nc12 | 2.89 | 2.56 | 1.75 | 2.05 | 32000 | – | –
OC(CN1CCN(c2cccc(Cl)c2)CC1)c1ccc(Br)cc1 (stereo not given) | 22.3 | 7.83 | 10.4 | 16.9 | – | – | –
COc1ccc(N2CCN(CC(O)c3ccc(Br)cc3)CC2)cc1 (stereo not given) | 3.46 | 2.82 | 1.34 | 2.6 | – | – | –
OC(CN1CCN(C(c2ccccc2)c2ccccc2)CC1)c1ccc(Br)cc1 (stereo not given) | 0.253 | 0.135 | 0.037 | 0.111 | 2000 | – | 0.034
OC(CN1CCN(c2ccccn2)CC1)c1ccc(Br)cc1 (stereo not given) | 5.7 | 6.12 | 3.41 | 6.61 | – | – | –
OC(CN1CCN(c2ccccc2Cl)CC1)c1ccc(Br)cc1 (stereo not given) | 4.62 | 3.92 | 2.46 | 2.54 | – | – | –
COc1cccc(N2CCN(CC(O)c3ccc(Br)cc3)CC2)c1 (stereo not given) | 3.29 | 2.91 | 1.44 | 2.06 | – | – | –
COc1ccccc1N1CCN(CC(O)c2ccc(Br)cc2)CC1 (stereo not given) | 4.15 | 2.28 | 1.22 | 2.57 | – | – | –
